Test results as given in patent US20100069393A1, “METHOD OF TREATMENT AND AGENTS USEFUL FOR SAME” (PRANA BIOTECHNOLOGY LIMITED, priority 2006, published 2010).

Test: Neurotoxicity assay: MTS viability of primary cortical neuronal cultures
Format: cell-based, mouse
Conditions: BL6Jx129sv, mouse, primary cortical neuronal cultures, Neuronal cells, read-out: Cytotoxicity (% viable at 1 and 10 uM); for viability at 4 days, 1 uM: test compound 1 uM; for viability at 4 days, 10 uM: test compound 10 uM
Experimental: Media was then replaced with Neurobasal media (Invitrogen Life Technologies) and B27 supplements (Invitrogen Life Technologies). Cultures were maintained at 37° C. in 5% CO2. Prior to experimentation, the culture medium was replaced with Neurobasal media and B27 minus antioxidants (Invitrogen Life Technologies).
Cell viability is determined using the MTS assay. Culture medium is replaced with fresh neurobasal medium plus B27 supplements minus antioxidants. 1/10th volume MTS solution (Cell Titre 96 Aqueous One, Promega Corporation) and incubated at 37° C., 2 hrs. 200 microlitre aliquots are measured with a spectrophotometer at 560 nm.
Neuronal cortical cells were cultured for five days as per Assay 2 in NB media and B27 supplement.
On day six the test compounds were added to the neuronal cell cultures in NB media and B27 supplement minus antioxidants.
Test compounds were dissolved in 100% DMSO to a concentration of 2.5 mM (10 mM if excess compound was weighed out per vial—then diluted to 2.5 mM). […] Test compounds were not added directly to cells, instead they were added to a 48 well ‘Drug Plate’ as comprised below:
The Drug Plate was incubated at 37° C. for 15 mins. 200 μl of each well was added in triplicate to the corresponding cell plate. The cell plate was incubated at 37 C, for 4 days.
On completion of the assay, 1/10 volume MTS was added per well of plate (i.e. 25 μl/250 μl). The plates were incubated at 37 C for 2 hrs, and then absorbance was read at 560 nm.

| Compound | viability at 4 days, 1 uM | viability at 4 days, 10 uM |
| --- | --- | --- |
| CN(c1ccccn1)c1ccc2c(Cl)cc(Cl)c(O)c2n1 | 100% | 59% |
| CSc1ccccc1-c1ccc2cccc(O)c2n1 | 114% | 112% |
| Oc1c(Cl)cc(-c2cccnc2)c2cccnc12 | 101% | 84% |
| Cc1cccc(-c2cc(Cl)c3cccnc3c2O)c1 | 98% | 73% |
| Cc1ccccc1-c1cc(Cl)c2cccnc2c1O | 100% | 100% |
| O=C(CNC(=O)c1cc(O)c2cccc(O)c2n1)NCc1ccccn1 | 93% | 93% |
| O=C(Nc1ccccc1O)c1ccc2cccc(O)c2n1 | 104% | 92% |
| COc1ccc(-c2cc(Cl)c3cccnc3c2O)cc1 | 97% | 31% |
| Oc1c(I)cc(-c2ccccc2F)c2cccnc12 | 92% | 34% |
| Oc1c(Cl)cc(Cl)c2ccc(-c3ccccn3)nc12 | 55% | 31% |
| O=C(NCc1ccccn1)c1ccc2cccc(O)c2n1 | 96% | 85% |
| Oc1c(Br)cc(Br)c2cccnc12 | 100% | 94% |
| O=S(=O)(O)c1cc(I)c(O)c2ncccc12 | 70% | 71% |
| Oc1c(-c2cc3ccccc3s2)cc(Cl)c2cccnc12 | 87% | 32% |
| O=C(Nc1nccs1)c1ccc2cccc(O)c2n1 | 100% | 100% |
| NCc1ccc2cccc(O)c2n1 | 101% | 97% |
| Oc1c(-c2ccccc2)cc(Cl)c2cccnc12 | 93% | 72% |
| O=C(NCc1ccccn1)c1cc(O)c2cccc(O)c2n1 | 100% | 100% |
| Nc1ccc2cccc(O)c2n1 | 95% | 48% |
| Cc1cnc2c(Cl)cc(Cl)c(O)c2n1 | 100% | 93% |
| NCc1ccc2c(Cl)cc(Cl)c(O)c2n1 | 100% | 80% |
| CC(=O)Nc1ccc2cccc(O)c2n1 | 93% | 89% |
| O/N=C/c1ccc2c(Cl)cc(Cl)c(O)c2n1 | 91% | 70% |
| N=C(N)NCc1ccc2cccc(O)c2n1 | 100% | 89% |
| O/N=C/c1ccc2cccc(O)c2n1 | 100% | 95% |
| COc1ccccc1-c1cc(I)c(O)c2ncccc12 | 91% | 35% |
| Oc1c(-c2cccc(F)c2)cc(Cl)c2cccnc12 | 98% | 71% |

| Compound | viability at 4 days, 1 uM | viability at 4 days, 10 uM |
| --- | --- | --- |
| Cc1cnc2c(O)c(Cl)cc(Cl)c2n1 | 94% | 87% |
| CC(Br)CCn1cnc2c(O)c(Cl)cc(Cl)c2c1=O (stereo not shown) | 101% | 73% |
| O=C(NCCc1cnc[nH]1)c1cc(O)c2cccc(O)c2n1 | 100% | 100% |
| Cc1cc(C)c2cccnc2c1O | 86% | 85% |
| Oc1c(-c2ccc(F)cc2)cc(Cl)c2cccnc12 | 103% | 75% |
| NC(=O)c1ccc2c(Cl)cc(Cl)c(O)c2n1 | 74% | 86% |
| Oc1ccc(/C=C/c2ccc3cccc(O)c3n2)cc1 | 100% | 75% |
| Oc1cccc2ccc(CN(CCc3c[nH]cn3)Cc3nccs3)nc12 | 82% | 34% |
| Cc1cccc(-c2ccc3cccc(O)c3n2)n1 | 91% | 58% |
| Nc1cnc2c(O)c(Cl)cc(Cl)c2c1 | 94% | 10% |
| Oc1c(I)cc(-c2ccccc2C(F)(F)F)c2cccnc12 | 91% | 90% |
| Oc1cccc2ccc(-n3cncn3)nc12 | 102% | 97% |
| CCOC(=O)c1cnc2c(O)c(CC)ncc2c1 | 103% | 92% |
| O=c1[nH]cnc2c(O)cccc12 | 101% | 89% |
| CO/N=C/c1ccc2c(Cl)cc(Cl)c(O)c2n1 | 77% | 54% |
| CNCc1ccc2c(Cl)cc(Cl)c(O)c2n1 | 86% | 78% |
| Oc1cccc2ccc(CN(CCc3c[nH]cn3)Cc3ccccn3)nc12 | 98% | 27% |
| Oc1cccc2ccc(CN(Cc3ccccn3)Cc3c[nH]cn3)nc12 | 90% | 70% |
| Cc1ccccc1-c1cc(-c2ccccc2C)c2cccnc2c1O | 93% | 34% |
| Nc1ccc(O)c2ncccc12 | 108% | 71% |
| O=C(O)CNC(=O)c1cc(O)c2cccc(O)c2n1 | 98% | 94% |
| Oc1c(Br)cc(-c2cc(F)cc(F)c2)c2cccnc12 | 95% | 95% |
| Cc1ccc2cccc(O)c2n1 | 98% | 58% |
| COc1cccc(-c2cc(Cl)c3cccnc3c2O)c1 | 83% | 71% |
| Oc1c(-c2cc(F)cc(F)c2)cc(Cl)c2cccnc12 | 90% | 66% |
| Oc1c(I)cc(I)c2cccnc12 | 91% | 95% |
| O=C(NCCc1c[nH]cn1)c1ccc2cccc(O)c2n1 | 100% | 100% |

| Compound | viability at 4 days, 1 uM | viability at 4 days, 10 uM |
| --- | --- | --- |
| Oc1ccc(Cl)c2cccnc12 | 94% | 85% |
| O=c1c2c(Cl)cc(Cl)c(O)c2ncn1CC1CCNCC1 | 97% | 96% |
| O=C(c1ccc2cccc(O)c2n1)N(Cc1ccccn1)Cc1ccccn1 | 81% | 79% |
| N#Cc1ccc2cccc(O)c2n1 | 94% | 97% |
| O=C(CNC(=O)c1cc(O)c2cccc(O)c2n1)NCCc1c[nH]cn1 | 98% | 89% |
| Oc1c(Cl)cc(Cl)c2cccnc12 | 98% | 75% |
| Oc1c(-c2ccsc2)cc(Cl)c2cccnc12 | 93% | 31% |
| COc1ccccc1-c1cc(-c2ccccc2OC)c2cccnc2c1O | 100% | 52% |
| Oc1cccc2ccc(CNCc3ccccn3)nc12 | 96% | 67% |
| Oc1c(-c2ccc(F)cc2F)cc(Cl)c2cccnc12 | 90% | 42% |
| Oc1ccccc1-c1cc(Cl)c2cccnc2c1O | 100% | 70% |
| O=C(O)c1ccc2c(Cl)cc(Cl)c(O)c2n1 | 88% | 80% |
| CN(CCc1ccccn1)Cc1ccc2cccc(O)c2n1 | 97% | 57% |
| O=Cc1ccccc1-c1cc(Cl)c2cccnc2c1O | 109% | 99% |
| Oc1c(Br)cc(-c2ccccc2)c2cccnc12 | 100% | 97% |
| Cc1cnc(NC(=O)c2ccc3cccc(O)c3n2)s1 | 94% | 68% |
| CCN(CC)Cc1ccc2c(Cl)cc(Cl)c(O)c2n1 | 74% | 70% |
| O=[N+]([O-])c1cccc(-c2cc(Cl)c3cccnc3c2O)c1 | 92% | 78% |
| O=C(O)CNC(=O)c1ccc2cccc(O)c2n1 | 100% | 89% |
| Cc1ccccc1-c1cc(I)c(O)c2ncccc12 | 99% | 38% |
| Oc1c(-c2cc(Cl)c3cccnc3c2O)cc(Cl)c2cccnc12 | 97% | 84% |
| Oc1cccc2c(=S)n(Cc3ccccn3)cnc12 | 97% | 90% |
| Oc1c(-c2ccccc2C(F)(F)F)cc(Cl)c2cccnc12 | 96% | 93% |
| Oc1cccc2ccc(CNCCc3c[nH]cn3)nc12 | 101% | 43% |
| Oc1cccc2ccc(CN(CCc3c[nH]cn3)Cc3c[nH]cn3)nc12 | 97% | 26% |
| COc1c(Cl)cc(Cl)c2c(=O)n(N)cnc12 | 99% | 93% |
